Data on one compound can be found in patent US5100591A, “Process for preparing lipid microparticles” (Medgenix Group S.A., priority 1989, dated 1992).

In brackets after ≈: the same amount, converted by molar mass.

For orientation: solubility means the dissolved amount per volume that the medium holds.

The conditions of series [1]: acetic acid and ammonia NH3 in methanol, two equivalents, 5 mg/ml in CH3OH.
Series [2] is described as follows: Stability of amphotericin B solutions by HPLC analysis. Conditions: for Stability in methanol solution in acid medium: topical grade.
Method: The stability of the amphotericin B solutions was recorded by HPLC analysis using a reversed-phase column (C18 Bondapak, 25×0.5 cm, Waters Associates). A CH3 CN/10 mM acetate buffer, pH 7, system (39:61) was used as eluent. UV recording was performed at 404 and 362 nm. The flow rate was 2 ml/min. The retention time (RT) of amphotericin B is 9.5 minutes. Results were expressed as the percentage of the peak area.

For the compound `C[C@@H]1[C@H](O)[C@@H](C)/C=C/C=C/C=C/C=C/C=C/C=C/C=C/[C@H](O[C@@H]2O[C@H](C)[C@@H](O)[C@H](N)[C@@H]2O)C[C@@H]2O[C@](O)(C[C@@H](O)C[C@@H](O)[C@H](O)CC[C@@H](O)C[C@@H](O)CC(=O)O[C@H]1C)C[C@H](O)[C@H]2C(=O)O` [amphotericin B], the “Dissolution of amphotericin B” value in series [1] is on record as “do not dissolve”. Moreover, the solubility was 5000 µg/mL in the series “physchem” (ch3oh + 1.0 eq. hcl, organic solvent or mixture, Solubility of i.v. grade amphotericin B); 5000 µg/mL in “physchem” (ch3oh + 1.0 eq. naoh, organic solvent or mixture, Solubility of i.v. grade amphotericin B); 5000 µg/mL in “physchem” (ch3oh + 1.5 eq. hcl, organic solvent or mixture, Solubility of topical grade amphotericin B); 5000 µg/mL in the series “physchem” (ch3oh + 1.5 eq. naoh, organic solvent or mixture, Solubility of topical grade amphotericin B); 3000 to 5000 µg/mL (≈ 3250 to 5410 µM) in “physchem” (ch3oh, acid, organic solvent or mixture, Solubility of amphotericin B); 2000 to 3000 µg/mL (≈ 2160 to 3250 µM) in the series “physchem” (ch3oh, basic, organic solvent or mixture, Solubility of amphotericin B). The solubility is 200 to 400 µg/mL (≈ 216 to 433 µM) in “physchem” (ch3oh, neutral, organic solvent or mixture, Solubility of amphotericin B); 150 µg/mL (≈ 162 µM) in “physchem” (ch3oh, organic solvent or mixture, Solubility of i.v. grade amphotericin B); 130 µg/mL (≈ 141 µM) in the series “physchem” (ch3oh, organic solvent or mixture, Solubility of topical grade amphotericin B); 6000 µg/mL (≈ 6490 µM) in “physchem” (dimethylacetamide, organic solvent or mixture, Solubility of amphotericin B in DMA); 60000 to 80000 µg/mL (≈ 64900 to 86600 µM) in “physchem” (dimethylformamide, acid, organic solvent or mixture, Solubility of amphotericin B); 2000 to 4000 µg/mL (≈ 2160 to 4330 µM) in the series “physchem” (dimethylformamide, neutral, organic solvent or mixture, Solubility of amphotericin B). Moreover, the solubility in “physchem” (h2o, acid, Solubility of amphotericin B) worked out at 100 µg/mL (≈ 108 µM); in the series “physchem” (h2o, basic, Solubility of amphotericin B), 100 µg/mL (≈ 108 µM). For the same compound, the “Stability of neutral CH3OH solution” value in series [2] (0.1 mg/ml, 4° C.) is “stable for several days”. In series [2] (basic CH3OH solution), the “Effect of neutralization with methanolic HCl on stability” value is “no effect on the stability”. The “Effect of addition of an excess of NaOH on stability” value in series [2] (excess of NaOH, methanolic solution) was “does not affect the stability”. Besides, the “Degradation in an acid medium” value in series [2] (i.v. grade, methanol, one equivalent HCl, concentration greater than 2 mg/ml) is listed as “increases greatly”. For the same compound, the “Stability in methanolic NaOH solution” value in series [2] (i.v. grade, one equivalent NaOH, up to 5 mg/ml) is recorded as “good stability”. For the same compound, the “Stability in methanol solution in acid medium” value in series [2] (0.1 mg/ml, 1.5 eq. HCl) was “stable”; in series [2] (5 mg/ml, acid medium (HCl)) it was “degraded”.
